Series [1] is described as follows: Pharmacokinetic (PK) studies in SD rat. The series is classed as in vivo. The method, then: Test Example 6: Pharmacokinetic (PK) Studies in SD Rat
The compound of Example 12 and Control Compound 2 were administered to male SD rats by intravenous injection (IV) and gavage (PO) respectively to estimate the pharmacokinetic properties. Dosing amounts for IV and PO routes were 1 mg/kg and 5 mg/kg, respectively. The solvent for IV route was 5% DMSO+5% Solutol (polyoxyl 15-hydroxystearate)+90% Saline (physiological saline), and the solvent for PO route was 0.5% MC (sodium methylcellulose). Blood was collected at various time points after IV and PO administration. The blood was anticoagulated using EDTA.K2, and centrifuged to obtain plasma samples. The plasma samples were preserved at −80° C.
The plasma samples were subjected to protein precipitation and then to the LC-MS/MS analysis. WinNonlin 6.3 software was used to calculate the pharmacokinetic parameters by non-compartmental model, and the results were listed in Table 6 below.

The target in another series is T1, EGFR (ErbB1) T790M L858R (Homo sapiens, UniProt P00533, L858R/T790M).
T1 construct: purchased ThermoFisher USA (contract testing)
T1 sequence (P00533 25-1210 T790M/L858R): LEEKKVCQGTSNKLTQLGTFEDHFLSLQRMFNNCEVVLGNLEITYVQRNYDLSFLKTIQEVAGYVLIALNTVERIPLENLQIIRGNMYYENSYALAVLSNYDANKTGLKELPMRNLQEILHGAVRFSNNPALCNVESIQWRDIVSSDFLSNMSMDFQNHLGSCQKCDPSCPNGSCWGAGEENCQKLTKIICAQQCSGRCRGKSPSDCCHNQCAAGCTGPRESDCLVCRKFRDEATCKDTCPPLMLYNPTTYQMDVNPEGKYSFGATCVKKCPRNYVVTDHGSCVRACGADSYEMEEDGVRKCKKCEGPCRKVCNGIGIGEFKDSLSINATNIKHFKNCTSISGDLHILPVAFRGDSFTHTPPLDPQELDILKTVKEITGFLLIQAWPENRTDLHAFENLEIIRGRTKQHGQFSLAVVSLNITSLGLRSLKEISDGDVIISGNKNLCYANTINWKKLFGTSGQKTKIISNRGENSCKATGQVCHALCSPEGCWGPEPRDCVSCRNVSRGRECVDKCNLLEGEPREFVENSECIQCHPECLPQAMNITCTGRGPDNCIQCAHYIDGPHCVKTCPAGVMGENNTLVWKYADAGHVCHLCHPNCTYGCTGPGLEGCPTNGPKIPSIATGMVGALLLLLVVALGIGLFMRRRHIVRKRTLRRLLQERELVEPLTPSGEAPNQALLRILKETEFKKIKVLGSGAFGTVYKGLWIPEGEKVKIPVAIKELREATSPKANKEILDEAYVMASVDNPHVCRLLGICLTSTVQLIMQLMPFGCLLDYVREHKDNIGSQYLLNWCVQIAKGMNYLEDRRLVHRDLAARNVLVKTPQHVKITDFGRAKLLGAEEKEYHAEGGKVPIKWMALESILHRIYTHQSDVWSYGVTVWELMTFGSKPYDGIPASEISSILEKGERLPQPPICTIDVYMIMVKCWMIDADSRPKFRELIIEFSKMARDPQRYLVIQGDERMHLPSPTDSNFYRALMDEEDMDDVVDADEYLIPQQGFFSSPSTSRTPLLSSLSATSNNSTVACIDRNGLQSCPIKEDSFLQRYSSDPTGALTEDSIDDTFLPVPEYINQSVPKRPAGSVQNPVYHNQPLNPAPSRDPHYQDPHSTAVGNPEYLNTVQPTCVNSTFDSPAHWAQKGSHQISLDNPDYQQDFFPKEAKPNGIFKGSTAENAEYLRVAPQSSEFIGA
Kind of series: Kinase selectivity test (ThermoFisher). The series is classed as biochemical. The method, then: (§1) Test Example 11: Kinase Selectivity Test
(§2) 1. Experimental Purpose: Tests for selectivity of the compounds of the present disclosure for a plurality of kinases were carried out to assess the safety risk of the compounds of the present disclosure.
(§3) 2. Test institution: ThermoFisher USA
(§4) 3. Testing methods: LanthaScreen binding, Z′-LYTE, Adapta
(§5) 4. Test targets: 100 targets in total

The next series has as its target T2, JAK2 (Homo sapiens, UniProt O60674).
T2 construct: purchased ThermoFisher USA (contract testing)
Put plainly: Kinase selectivity test (ThermoFisher). The series is classed as biochemical. Details: concentration or dose not given beside the values. How it is done:
as §1, §2, §3, §4, §5

A further series has as its target T3, MAPKAPK2 (Homo sapiens, UniProt P49137).
T3 construct: purchased ThermoFisher USA (contract testing)
Put plainly: Kinase selectivity test (ThermoFisher). The series is classed as biochemical. Also on record: concentration or dose not given beside the values. How it is done:
as §1, §2, §3, §4, §5

A further series deals with T4, SGK (SGK1) (Homo sapiens, UniProt O00141).
T4 construct: purchased ThermoFisher USA (contract testing)
T4 sequence (O00141 1-431): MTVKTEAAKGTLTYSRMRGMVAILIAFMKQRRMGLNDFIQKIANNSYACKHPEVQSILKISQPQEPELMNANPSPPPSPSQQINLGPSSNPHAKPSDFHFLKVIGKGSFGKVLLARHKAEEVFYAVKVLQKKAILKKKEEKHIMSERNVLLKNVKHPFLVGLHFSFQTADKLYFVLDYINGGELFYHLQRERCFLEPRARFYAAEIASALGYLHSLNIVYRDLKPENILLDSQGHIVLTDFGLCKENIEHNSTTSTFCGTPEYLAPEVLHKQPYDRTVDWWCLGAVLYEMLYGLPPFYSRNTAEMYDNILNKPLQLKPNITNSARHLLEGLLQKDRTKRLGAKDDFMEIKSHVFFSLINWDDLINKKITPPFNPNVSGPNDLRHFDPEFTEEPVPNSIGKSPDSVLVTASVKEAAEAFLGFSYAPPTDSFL
Put plainly: Kinase selectivity test (ThermoFisher). The series is classed as biochemical. Also on record: concentration or dose not given beside the values. How it is done: as §1, §2, §3, §4, §5

The next series concerns the target T5, GRK4 (Homo sapiens, UniProt P32298).
T5 construct: purchased ThermoFisher USA (contract testing)
Kind of series: Kinase selectivity test (ThermoFisher). The series is classed as biochemical. Details: concentration or dose not given beside the values. The method, then: as §1, §2, §3, §4, §5

[2] abbreviates: rat, in vivo, male SD rats, IV, 1 mg/kg, plasma.
Setting [3] is: rat, in vivo, male SD rats, PO, 5 mg/kg, plasma.

The structures appear in SMILES notation.

Two compounds from US20230212180A1, “SUBSTITUTED PYRAZINE COMPOUND, PHARMACEUTICAL COMPOSITION COMPRISING SAME, AND USE THEREOF” (Sichuan Kelun-Biotech Biopharmaceutical Co., Ltd., priority 2020, published 2023) can be followed below.

T2 sequence (O60674 whole entry): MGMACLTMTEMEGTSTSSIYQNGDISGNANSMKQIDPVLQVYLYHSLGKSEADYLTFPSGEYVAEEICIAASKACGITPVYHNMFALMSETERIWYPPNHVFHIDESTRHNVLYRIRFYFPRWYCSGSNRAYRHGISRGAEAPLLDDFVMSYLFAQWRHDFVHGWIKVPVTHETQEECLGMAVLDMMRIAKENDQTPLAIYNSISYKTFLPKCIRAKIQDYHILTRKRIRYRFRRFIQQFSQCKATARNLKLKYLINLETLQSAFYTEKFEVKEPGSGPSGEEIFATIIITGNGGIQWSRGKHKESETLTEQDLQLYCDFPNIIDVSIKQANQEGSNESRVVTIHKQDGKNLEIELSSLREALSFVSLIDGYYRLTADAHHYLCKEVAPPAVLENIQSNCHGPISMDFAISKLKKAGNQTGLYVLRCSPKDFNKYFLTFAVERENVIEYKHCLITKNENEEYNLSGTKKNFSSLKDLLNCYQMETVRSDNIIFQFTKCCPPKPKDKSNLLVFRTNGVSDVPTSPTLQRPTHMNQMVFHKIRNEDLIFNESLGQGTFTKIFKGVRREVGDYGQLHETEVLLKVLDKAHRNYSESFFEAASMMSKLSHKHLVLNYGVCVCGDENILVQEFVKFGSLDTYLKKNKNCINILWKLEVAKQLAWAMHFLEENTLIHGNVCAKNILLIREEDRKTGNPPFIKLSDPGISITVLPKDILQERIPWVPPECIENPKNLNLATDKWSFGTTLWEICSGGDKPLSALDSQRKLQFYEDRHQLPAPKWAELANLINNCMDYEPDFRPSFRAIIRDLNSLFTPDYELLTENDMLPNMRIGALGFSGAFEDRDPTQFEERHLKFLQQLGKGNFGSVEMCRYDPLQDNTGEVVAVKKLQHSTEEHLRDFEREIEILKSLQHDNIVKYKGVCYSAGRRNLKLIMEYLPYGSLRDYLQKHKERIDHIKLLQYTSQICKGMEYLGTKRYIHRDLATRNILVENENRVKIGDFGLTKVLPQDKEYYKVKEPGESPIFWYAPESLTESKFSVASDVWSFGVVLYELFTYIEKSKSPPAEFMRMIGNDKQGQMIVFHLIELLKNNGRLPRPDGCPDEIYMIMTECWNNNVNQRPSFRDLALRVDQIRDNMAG
T5 sequence (P32298 whole entry): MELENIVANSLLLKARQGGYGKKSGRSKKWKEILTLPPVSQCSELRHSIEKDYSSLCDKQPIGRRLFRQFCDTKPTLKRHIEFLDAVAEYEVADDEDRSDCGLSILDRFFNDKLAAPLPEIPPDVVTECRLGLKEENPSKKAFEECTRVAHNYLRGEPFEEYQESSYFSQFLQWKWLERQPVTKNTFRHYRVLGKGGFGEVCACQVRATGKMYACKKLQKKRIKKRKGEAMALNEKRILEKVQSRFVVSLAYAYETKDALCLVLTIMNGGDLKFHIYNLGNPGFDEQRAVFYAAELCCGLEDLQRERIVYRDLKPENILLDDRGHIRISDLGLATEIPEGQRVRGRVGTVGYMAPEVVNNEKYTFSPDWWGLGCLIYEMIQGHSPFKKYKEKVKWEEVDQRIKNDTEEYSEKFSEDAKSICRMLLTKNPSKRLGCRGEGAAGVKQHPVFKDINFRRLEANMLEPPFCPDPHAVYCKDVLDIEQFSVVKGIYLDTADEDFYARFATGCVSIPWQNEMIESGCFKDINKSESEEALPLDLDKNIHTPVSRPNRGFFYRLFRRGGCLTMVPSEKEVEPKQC
T3 sequence (P49137 whole entry): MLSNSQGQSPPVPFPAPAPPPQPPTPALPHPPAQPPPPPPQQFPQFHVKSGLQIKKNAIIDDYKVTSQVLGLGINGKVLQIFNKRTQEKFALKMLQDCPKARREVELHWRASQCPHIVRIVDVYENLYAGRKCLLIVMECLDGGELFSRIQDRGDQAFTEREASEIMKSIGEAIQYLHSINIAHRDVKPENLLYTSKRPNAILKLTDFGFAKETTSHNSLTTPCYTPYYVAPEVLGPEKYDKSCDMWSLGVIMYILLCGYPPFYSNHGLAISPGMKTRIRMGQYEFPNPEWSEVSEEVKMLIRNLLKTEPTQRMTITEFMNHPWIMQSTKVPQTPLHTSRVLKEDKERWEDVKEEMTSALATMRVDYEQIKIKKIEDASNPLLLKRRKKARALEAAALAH

Regarding `C[C@@H]1OCC2(CCN(c3ncc(Sc4ccnc(N5CC(C(C)(C)O)C5)c4Cl)nc3CO)CC2)[C@@H]1N` [Example 12, 2-(1-(4-(5-((3S,4S)-4-amino-3-methyl-2-oxa-8-azaspiro[4.5]decan-8-yl)-6-(hydroxymethyl)pyrazin-2-ylthio)-3-chloropyridin-2-yl)azetidin-3-yl)propan-2-ol], the “pharmacokinetic properties (in words)” value in series [1] (SD rat, 1 mg/kg by injection and 5 mg/kg by mouth) is on record as “excellent pharmacokinetic properties”. For the same compound, the AUC(0-t) in series [1] (setting [2]) was found to be 1690 ng·h/mL; in series [1] (setting [3]), 9680 ng·h/mL. The Cmax in series [1] (setting [2]) was determined as 373 ng/mL; in series [1] (setting [3]) it was 1110 ng/mL. Further, in series [1] (setting [2]), the clearance amounted to 9.8 mL/min/kg. Moreover, the “Inhibition (%) Target 1” value at EGFR (ErbB1) T790M L858R is recorded as 0%; on JAK2, −7%; on MAPKAPK2 it was 31%; on SGK (SGK1) it was 1%; on GRK4 it was 9%. For the same compound, the “Inhibition (%) Target 2” value on EGFR (ErbB1) T790M L858R is 5%; at JAK2 it was −2%; on MAPKAPK2, 27%; on SGK (SGK1), 2%; at GRK4, 7%. Also, the “Inhibition (%) Mean value” on EGFR (ErbB1) T790M L858R is 2%; at JAK2, −4%; on MAPKAPK2 it was 29%; on SGK (SGK1), 1%; at GRK4 it was 8%.

Regarding `C[C@@H]1OCC2(CCN(c3cnc(Sc4ccnc(N)c4Cl)c(N)n3)CC2)[C@@H]1N` [TNO-155, reference compound], the “Inhibition (%) Target 1” value at EGFR (ErbB1) T790M L858R was determined as 81%; on JAK2 it was 61%; on MAPKAPK2 it was 106%; on SGK (SGK1), 62%; on GRK4, 96%. Moreover, the “Inhibition (%) Target 2” value on EGFR (ErbB1) T790M L858R came to 77%; on JAK2, 57%; at MAPKAPK2, 107%; on SGK (SGK1) it was 57%; at GRK4 it was 95%. The “Inhibition (%) Mean value” at EGFR (ErbB1) T790M L858R turned out to be 79%; on JAK2, 59%; at MAPKAPK2, 106%; on SGK (SGK1), 60%; on GRK4, 95%.
